Measured values taken from ChEMBL document CHEMBL6182839, “Exploration of the cytotoxic and microtubule disruption potential of novel imidazo[1,5-a]pyridine-based chalcones” (RSC Med Chem, 2025).
pIC50: −log10 of the molar value. Values belong to the compound of their own block, whether it stands above or below them. Calls of active or inactive are those of the source. The calls are words filed in the database; no cut-off is given here.

Columns and labels:
MDA-MB-231 [1] = test: Cytotoxicity against human MDA-MB-231 cells assessed as inhibition of cell growth incubated for 48 hrs by MTT assay; assay type: functional, cell-based; details: MDA-MB-231, 48 h
RKO = test: Cytotoxicity against human RKO cells assessed as inhibition of cell growth incubated for 48 hrs by MTT assay; assay type: functional, cell-based
MG-63 = test: Cytotoxicity against human MG-63 cells assessed as inhibition of cell growth incubated for 48 hrs by MTT assay; assay type: functional, cell-based; details: MG-63, 48 h
PC-3 = test: Cytotoxicity against human PC-3 cells assessed as inhibition of cell growth incubated for 48 hrs by MTT assay; assay type: functional, cell-based; details: PC-3, 48 h
HepG2 = test: Cytotoxicity against human HepG2 cells assessed as inhibition of cell growth incubated for 48 hrs by MTT assay; assay type: functional, cell-based; details: HepG2, 48 h
[2] = Cytotoxicity against HEK cells assessed as inhibition of cell growth incubated for 48 hrs by MTT assay; assay type: toxicity, cell-based; details: human
[3] = Selectivity ratio of IC50 for HEK cells to IC50 for human MDA-MB-231 cells; assay type: toxicity; details: HEK cells versus MDA-MB-231 cells, read-out: Ratio IC50
[4] = Selectivity ratio of IC50 for HEK cells to IC50 for human PC-3 cells; assay type: toxicity; details: HEK cells versus PC-3 cells, read-out: Ratio IC50
[5] = Selectivity ratio of IC50 for HEK cells to IC50 for human HepG2 cells; assay type: toxicity; details: HEK cells versus HepG2 cells, read-out: Ratio IC50
MDA-MB-231 [6] = test: Induction of apoptosis in human MDA-MB-231 cells assessed as viable cells at 5 uM incubated for 24 hrs by annexin V-FITC/PI staining based flow cytometry analysis (reference value: 98.4%); assay type: functional; details: read-out: Activity
MDA-MB-231 [7] = test: Induction of apoptosis in human MDA-MB-231 cells assessed as early apoptotic cells at 5 uM incubated for 24 hrs by annexin V-FITC/PI staining based flow cytometry analysis (reference value: 1.4%); assay type: functional
MDA-MB-231 [8] = test: Induction of apoptosis in human MDA-MB-231 cells assessed as late apoptotic cells at 5 uM incubated for 24 hrs by annexin V-FITC/PI staining based flow cytometry analysis (reference value: 0.2%); assay type: functional
MDA-MB-231 [9] = test: Induction of apoptosis in human MDA-MB-231 cells assessed as necrotic cells at 5 uM incubated for 24 hrs by annexin V-FITC/PI staining based flow cytometry analysis (reference value: 0.0%); assay type: functional
MDA-MB-231 [10] = test: Induction of apoptosis in human MDA-MB-231 cells assessed as viable cells at 10 uM incubated for 24 hrs by annexin V-FITC/PI staining based flow cytometry analysis (reference value: 98.4%); assay type: functional; details: read-out: Activity
MDA-MB-231 [11] = test: Induction of apoptosis in human MDA-MB-231 cells assessed as early apoptotic cells at 10 uM incubated for 24 hrs by annexin V-FITC/PI staining based flow cytometry analysis (reference value: 1.4%); assay type: functional
MDA-MB-231 [12] = test: Induction of apoptosis in human MDA-MB-231 cells assessed as late apoptotic cells at 10 uM incubated for 24 hrs by annexin V-FITC/PI staining based flow cytometry analysis (reference value: 0.2%); assay type: functional
MDA-MB-231 [13] = test: Induction of apoptosis in human MDA-MB-231 cells assessed as necrotic cells at 10 uM incubated for 24 hrs by annexin V-FITC/PI staining based flow cytometry analysis (reference value: 0.0%); assay type: functional
Mitochondrial membrane = test: Induction of mitochondrial membrane potential depolarization in human MDA-MB-231 cells at 5 to 10 uM incubated for 24 hrs by JC-1 dye based flow cytometric analysis; details: dose 5-10 µM
MDA-MB-231 [14] = test: Induction of intracellular ROS generation in human MDA-MB-231 cells at 5 to 10 uM incubated for 24 hrs by H2DCFDA staining based flow cytometric analysis; assay type: functional, cell-based; details: dose 5-10 µM
Tubulin (Homo sapiens) [15] = biological target: T1, Tubulin (Homo sapiens) (UniProt P68371+Q9H4B7+P0DPH7+P68366+Q13509+Q71U36+P04350+Q3ZCM7+P07437+P68363+Q9BQE3+Q6PEY2+Q13885+Q9BVA1+Q9BUF5); test: Disruption of microtubule network in human MDA-MB-231 cells assessed as decrease in beta-tubulin expression at 5 to 10 uM incubated for 24 hrs by immunofluorescence staining based confocal microscopic analysis; assay type: cell-based; details: dose 5-10 µM
Tubulin (Homo sapiens) [16] = biological target: T1, Tubulin (Homo sapiens); test: Disruption of microtubule network in human MDA-MB-231 cells assessed as decrease in beta-tubulin expression incubated for 24 hrs by immunofluorescence staining based confocal microscopic analysis; assay type: cell-based; details: dose 5-10 µM

SMILES: COc1ccc(C(=O)/C=C/c2nc(-c3ccc(Cl)cc3)n3ccccc23)cc1OC
pIC50 (MDA-MB-231 [1]): < 4.30
pIC50 (RKO): < 4.30
pIC50 (MG-63): < 4.30
pIC50 (PC-3): < 4.30
pIC50 (HepG2): < 4.30

SMILES: O=C(/C=C/c1nc(-c2ccc(C(F)(F)F)cc2)n2ccccc12)c1ccc(F)c(F)c1
pIC50 (MDA-MB-231 [1]): < 4.30
pIC50 (RKO): < 4.30
pIC50 (MG-63): < 4.30
pIC50 (PC-3): < 4.30
pIC50 (HepG2): < 4.30

SMILES: COc1ccc(-c2nc(/C=C/C(=O)c3ccc(OC)c(OC)c3)c3ccccn23)cc1
pIC50 (MDA-MB-231 [1]): < 4.30
pIC50 (RKO): < 4.30
pIC50 (MG-63): 4.69
pIC50 (PC-3): < 4.30
pIC50 (HepG2): < 4.30

SMILES: COc1ccc(C(=O)/C=C/c2nc(-c3ccccc3)n3ccccc23)cc1OC
pIC50 (MDA-MB-231 [1]): < 4.30
pIC50 (RKO): < 4.30
pIC50 (MG-63): 4.25
pIC50 (PC-3): < 4.30
pIC50 (HepG2): < 4.30

SMILES: COc1cc(C(=O)/C=C/c2nc(-c3ccccc3)n3ccccc23)cc(OC)c1OC
pIC50 (MDA-MB-231 [1]): 4.91
pIC50 (RKO): < 4.30
pIC50 (MG-63): 4.90
pIC50 (PC-3): < 4.30
pIC50 (HepG2): 4.87

SMILES: O=C(/C=C/c1nc(-c2ccc(Cl)cc2)n2ccccc12)c1ccc(F)c(F)c1
pIC50 (MDA-MB-231 [1]): < 4.30
pIC50 (RKO): < 4.30
pIC50 (MG-63): < 4.30
pIC50 (PC-3): < 4.30
pIC50 (HepG2): < 4.30

SMILES: COc1ccc(-c2nc(/C=C/C(=O)c3ccc(Cl)c(Cl)c3)c3ccccn23)cc1
pIC50 (MDA-MB-231 [1]): < 4.30
pIC50 (RKO): < 4.30
pIC50 (MG-63): 4.33
pIC50 (PC-3): < 4.30
pIC50 (HepG2): < 4.30

SMILES: O=C(/C=C/c1nc(-c2ccc(C(F)(F)F)cc2)n2ccccc12)c1ccc(Cl)c(Cl)c1
pIC50 (MDA-MB-231 [1]): < 4.30
pIC50 (RKO): < 4.30
pIC50 (MG-63): < 4.30
pIC50 (PC-3): < 4.30
pIC50 (HepG2): < 4.30

SMILES: COc1cc(C(=O)/C=C/c2nc(-c3ccc(C(F)(F)F)cc3)n3ccccc23)cc(OC)c1OC
pIC50 (MDA-MB-231 [1]): < 4.30
pIC50 (RKO): < 4.30
pIC50 (MG-63): < 4.30
pIC50 (PC-3): < 4.30
pIC50 (HepG2): < 4.30

Activity (Mitochondrial membrane): Active
Activity (Tubulin (Homo sapiens) [15]): Active
Activity (Tubulin (Homo sapiens) [16]): Dose-dependent-effect
SMILES: COc1cc(C(=O)/C=C/c2nc(-c3ccc(Cl)cc3)n3ccccc23)cc(OC)c1OC
pIC50 (MDA-MB-231 [1]): 5.37
pIC50 (RKO): 4.73
pIC50 (MG-63): 5.21
pIC50 (PC-3): 4.75
pIC50 (HepG2): 4.68
IC50 at 48 h [2]: 50 µM
selectivity ratio [3]: 11
selectivity ratio [4]: 3
selectivity ratio [5]: 2
viability at 5 µM (MDA-MB-231 [6]): 90.6%
Activity (MDA-MB-231 [7]): 3.8%
Activity (MDA-MB-231 [8]): 5.5%
Activity (MDA-MB-231 [9]): 0%
viability at 10 µM (MDA-MB-231 [10]): 67.2%
Activity (MDA-MB-231 [11]): 18.6%
Activity (MDA-MB-231 [12]): 13.9%
Activity (MDA-MB-231 [13]): 0.3%
Activity (MDA-MB-231 [14]): Active

SMILES: COc1ccc(-c2nc(/C=C/C(=O)c3cc(OC)c(OC)c(OC)c3)c3ccccn23)cc1
pIC50 (MDA-MB-231 [1]): < 4.30
pIC50 (RKO): < 4.30
pIC50 (MG-63): 4.67
pIC50 (PC-3): < 4.30
pIC50 (HepG2): < 4.30

SMILES: O=C(/C=C/c1nc(-c2ccccc2)n2ccccc12)c1ccc(F)c(F)c1
pIC50 (MDA-MB-231 [1]): < 4.30
pIC50 (RKO): < 4.30
pIC50 (MG-63): 4.07
pIC50 (PC-3): < 4.30
pIC50 (HepG2): < 4.30

SMILES: COC(=O)Nc1nc2cc(C(=O)c3cccs3)ccc2[nH]1 [NOCODAZOLE]
pIC50 (MDA-MB-231 [1]): 5.49
pIC50 (RKO): 5.59
pIC50 (MG-63): 5.90
pIC50 (PC-3): 5.54
pIC50 (HepG2): 5.67
viability at 10 µM (MDA-MB-231 [10]): 46%
Activity (MDA-MB-231 [11]): 5.6%
Activity (MDA-MB-231 [12]): 48.3%
Activity (MDA-MB-231 [13]): 0%
Activity (Mitochondrial membrane): Active
Activity (MDA-MB-231 [14]): Active

SMILES: O=C(/C=C/c1nc(-c2ccccc2)n2ccccc12)c1ccc(Cl)c(Cl)c1
pIC50 (MDA-MB-231 [1]): < 4.30
pIC50 (RKO): < 4.30
pIC50 (MG-63): 4.34
pIC50 (PC-3): < 4.30
pIC50 (HepG2): < 4.30

SMILES: COc1ccc(C(=O)/C=C/c2nc(-c3ccc(C(F)(F)F)cc3)n3ccccc23)cc1OC
pIC50 (MDA-MB-231 [1]): < 4.30
pIC50 (RKO): < 4.30
pIC50 (MG-63): < 4.30
pIC50 (PC-3): < 4.30
pIC50 (HepG2): < 4.30

SMILES: O=C(/C=C/c1nc(-c2ccc(F)cc2)n2ccccc12)c1ccc(F)c(F)c1
pIC50 (MDA-MB-231 [1]): < 4.30
pIC50 (RKO): < 4.30
pIC50 (MG-63): 4.94
pIC50 (PC-3): < 4.30
pIC50 (HepG2): < 4.30

SMILES: O=C(/C=C/c1nc(-c2ccc(F)cc2)n2ccccc12)c1ccc(Cl)c(Cl)c1
pIC50 (MDA-MB-231 [1]): < 4.30
pIC50 (RKO): < 4.30
pIC50 (MG-63): 4.99
pIC50 (PC-3): < 4.30
pIC50 (HepG2): < 4.30

SMILES: COc1cc(C(=O)/C=C/c2nc(-c3ccc(F)cc3)n3ccccc23)cc(OC)c1OC
pIC50 (MDA-MB-231 [1]): < 4.30
pIC50 (RKO): < 4.30
pIC50 (MG-63): < 4.30
pIC50 (PC-3): < 4.30
pIC50 (HepG2): < 4.30

Activity (Mitochondrial membrane): Active
Activity (Tubulin (Homo sapiens) [15]): Active
Activity (Tubulin (Homo sapiens) [16]): Dose-dependent-effect
SMILES: O=C(/C=C/c1nc(-c2ccc(Cl)cc2)n2ccccc12)c1ccc(Cl)c(Cl)c1
pIC50 (MDA-MB-231 [1]): 5.49
pIC50 (RKO): 5.11
pIC50 (MG-63): 5.10
pIC50 (PC-3): 4.83
pIC50 (HepG2): 5.34
IC50 at 48 h [2]: 62 µM
selectivity ratio [3]: 19
selectivity ratio [4]: 4
selectivity ratio [5]: 13
viability at 5 µM (MDA-MB-231 [6]): 66.5%
Activity (MDA-MB-231 [7]): 5.1%
Activity (MDA-MB-231 [8]): 26.9%
Activity (MDA-MB-231 [9]): 1.6%
viability at 10 µM (MDA-MB-231 [10]): 48.6%
Activity (MDA-MB-231 [11]): 21.2%
Activity (MDA-MB-231 [12]): 29.9%
Activity (MDA-MB-231 [13]): 0.3%
Activity (MDA-MB-231 [14]): Active

SMILES: COc1ccc(-c2nc(/C=C/C(=O)c3ccc(F)c(F)c3)c3ccccn23)cc1
pIC50 (MDA-MB-231 [1]): < 4.30
pIC50 (RKO): < 4.30
pIC50 (MG-63): 4.49
pIC50 (PC-3): < 4.30
pIC50 (HepG2): < 4.30

SMILES: COc1ccc(C(=O)/C=C/c2nc(-c3ccc(F)cc3)n3ccccc23)cc1OC
pIC50 (MDA-MB-231 [1]): < 4.30
pIC50 (RKO): < 4.30
pIC50 (MG-63): < 4.30
pIC50 (PC-3): < 4.30
pIC50 (HepG2): < 4.30
